Data taken from patent publication US8772199B2, “Herbicidal compositions for tolerant or resistant maize crops” (Bayer Intellectual Property GmbH, priority 1998, dated 2014).
Counter-ions that a name gives are not always drawn.

Experiments:
Type in all cases: in vivo
[1] = test system: Mais LL (Liberty-Link-Mais, maize tolerant or resistant to glufosinate-ammonium); assay: Field trial, damage to transgenic maize (tolerance by crop plants); conditions: for Mais LL: application 3-leaf stage
Description: (§1) Transgenic maize plants with a resistance to one or more herbicides (A) together with typical weed plants were grown in the open on 2×5 m plots under natural field conditions; alternatively, weed infestation occurred naturally when the maize plants were grown.
The damage to, and the development of, all aerial parts of the plants was recorded.
Abbreviations generally used in the tables: • g of a.s./ha=gram of active substance (100% active substance) per hectare • E^A=Total of the herbicidal effects of the individual applications • E^C Colby's expected value (cf. scoring in Table 1) • “Mais LL”=®Liberty-Link-Mais, maize which is tolerant or resistant to glufosinate-ammonium, […]

AGRRE = assay: Field trial with maize, herbicidal action; conditions: application 2-4-leaf stage, scoring 3 weeks after application
Description: as §1
(§2) […] The damage to, and the development of, all aerial parts of the plants was recorded. Scoring was done on the basis of a percentage sale (100% action=all plants destroyed; 50% action=50% of the plants and green parts of the plants destroyed; 0% action=no recognizable effect=like control plot. The mean of the score values of in each case 4 plots was calculated.

AMARE = assay: Field trial with maize, herbicidal action; conditions: application 2-4-leaf stage, scoring 3 weeks after application
Description: as §1, §2

Cassia obtusifolia = assay: Field trial with maize, herbicidal action; conditions: 400 g of a.s./ha; application 3-leaf stage; scoring 21 days after application
Description: as §1, §2

Echinochloa crus-galli = assay: Field trial with maize, herbicidal action
Description: as §1, §2

Euphorbia heterophylla = assay: Field trial with maize, herbicidal action; conditions: for Herbicidal action (%) against Euphorbia heterophylla: application 6-leaf stage, scoring 44 days after application; for Herbicidal action (%) against EPHHL: application 4-leaf stage, scoring 6 weeks after application
Description: as §1, §2

Fagopyrum esculentum = assay: Field trial with maize, herbicidal action; conditions: for Herbicidal action (%) against Fagopyrum esculentum: application 3- to 4-leaf stage, scoring 24 days after application; for Herbicidal action (%) against Fagopyron esculentum: application 2- to 4-leaf stage, scoring 26 days after application
Description: as §1, §2

Galium aparine = assay: Field trial with maize, herbicidal action; conditions: application 3- to 4-leaf stage, scoring 24 days after application
Description: as §1, §2

Portulaca oleracea = assay: Field trial with maize, herbicidal action
Description: as §1, §2

SETVI = assay: Field trial with maize, herbicidal action; conditions: application 2-4-leaf stage, scoring 3 weeks after application
Description: as §1, §2

Avena fatua = assay: Field trial with maize, herbicidal action; conditions: application 2- to 4-leaf stage, scoring 28 days after application
Description: as §1
(§3) 2, 4, 6 and 8 weeks after the application, the herbicidal activity of the active substances or active substance mixtures was scored visually with reference to the treated plots in comparison to untreated control plots. The damage to, and the development of, all aerial parts of the plants was recorded. Scoring was done on the basis of a percentage sale (100% action=all plants destroyed; 50% action=50% of the plants and green parts of the plants destroyed; 0% action=no recognizable effect=like control plot. The mean of the score values of in each case 4 plots was calculated.

Brachiaria plantaginea = assay: Field trial with maize, herbicidal action; conditions: application 2-leaf stage, scoring 28 days after application
Description: as §1, §3

Commelina benghalensis = assay: Field trial with maize, herbicidal action; conditions: application 3-leaf stage, scoring 42 days after application
Description: as §1, §3

Convolvulus arvensis = assay: Field trial with maize, herbicidal action; conditions: application 3- to 4-leaf stage, scoring 28 days after application
Description: as §1, §3

Sinapis arvensis = assay: Field trial with maize, herbicidal action; conditions: application 4- to 5-leaf stage, scoring 28 days after application
Description: as §1, §3

Sorghum bicolor = assay: Field trial with maize, herbicidal action; conditions: application 4-leaf stage, scoring 28 days after post-emergence application
Description: as §1, §3

Sorghum halepense = assay: Field trial with maize, herbicidal action; conditions: application 4-leaf stage, scoring 28 days after application
Description: as §1, §3

CP(=O)(O)CCC(N)C(=O)O (stereo not shown) [(A1.2), glufosinate-monoammonium salt]
Mais LL ([1]; 100 g of a.s./ha, Table 11, head names no quantity): 0
Damage to Mais LL in % ([1]; 100 g of a.s./ha, application 6-leaf stage): 0%
Damage to Mais LL in % ([1]; 200 g of a.s./ha, application 2-4-leaf stage): 3%
Mais LL ([1]; 200 g of a.s./ha, Table 11, head names no quantity): 0
Mais LL ([1]; 200 g of a.s./ha, Table 14, head names no quantity): 0
Damage to Mais LL in % ([1]; 200 g of a.s./ha, application 5-6-leaf stage): 2%
Damage to Mais LL in % ([1]; 200 g of a.s./ha, application 6-leaf stage): 0%
Damage to Mais LL in % ([1]; 300 g of a.s./ha, application 2-4-leaf stage): 2%
Mais LL ([1]; 300 g of a.s./ha, Table 11, head names no quantity): 0
Damage to Mais LL in % ([1]; 300 g of a.s./ha, application 4-leaf stage): 0%
Damage to Mais LL in % ([1]; 400 g of a.s./ha, application 2-4-leaf stage): 5%
Mais LL ([1]; 400 g of a.s./ha, Table 14, head names no quantity): 8
Damage to Mais LL in % ([1]; 400 g of a.s./ha, application 5-6-leaf stage): 4%
Damage to Mais LL in % ([1]; 400 g of a.s./ha, application 6-leaf stage): 0%
Damage to Mais LL in % ([1]; 600 g of a.s./ha, application 2-4-leaf stage): 3%
Mais LL ([1]; 600 g of a.s./ha, Table 11, head names no quantity): 0
Damage to Mais LL in % ([1]; 600 g of a.s./ha, application 4-leaf stage): 0%
Damage to Mais LL in % ([1]; 600 g of a.s./ha, application 5-6-leaf stage): 3%
Damage to Mais LL in % ([1]; 1000 g of a.s./ha, application 2-4-leaf stage): 4%
Herbicidal action (%) against AGRRE (AGRRE; 200 g of a.s./ha): 0%
Herbicidal action (%) against AGRRE (AGRRE; 300 g of a.s./ha): 0%
Herbicidal action (%) against AGRRE (AGRRE; 400 g of a.s./ha): 11%
Herbicidal action (%) against AGRRE (AGRRE; 600 g of a.s./ha): 15%
Herbicidal action (%) against AGRRE (AGRRE; 1000 g of a.s./ha): 74%
Herbicidal action (%) against AMARE (AMARE; 200 g of a.s./ha): 65%
Herbicidal action (%) against AMARE (AMARE; 300 g of a.s./ha): 84%
Herbicidal action (%) against AMARE (AMARE; 400 g of a.s./ha): 82%
Herbicidal action (%) against AMARE (AMARE; 600 g of a.s./ha): 87%
Herbicidal action (%) against AMARE (AMARE; 1000 g of a.s./ha): 85%
Herbicidal action (%) against Cassia obtusifolia (Cassia obtusifolia): 60%
Herbicidal action (%) against Echinochloa crus-galli (Echinochloa crus-galli; 125 g of a.s./ha, application 3- to 4-leaf stage, scoring 42 days after application): 45%
Herbicidal action (%) against Echinochloa crus-galli (Echinochloa crus-galli; 125 g of a.s./ha, application 3-leaf stage, scoring 28 days after application): 25%
Herbicidal action (%) against Echinochloa crus-galli (Echinochloa crus-galli; 200 g of a.s./ha, application 3-leaf stage, scoring 21 days after application): 35%
Herbicidal action (%) against Echinochloa crus-galli (Echinochloa crus-galli; 250 g of a.s./ha, application 3- to 4-leaf stage, scoring 42 days after application): 65%
Herbicidal action (%) against Echinochloa crus-galli (Echinochloa crus-galli; 250 g of a.s./ha, application 3-leaf stage, scoring 28 days after application): 45%
Herbicidal action (%) against Echinochloa crus-galli (Echinochloa crus-galli; 400 g of a.s./ha, application 3-leaf stage, scoring 21 days after application): 68%
Herbicidal action (%) against Echinochloa crus-galli (Echinochloa crus-galli; 500 g of a.s./ha, application 3- to 4-leaf stage, scoring 42 days after application): 78%
Herbicidal action (%) against Echinochloa crus-galli (Echinochloa crus-galli; 500 g of a.s./ha, application 3-leaf stage, scoring 28 days after application): 74%
Herbicidal action (%) against Euphorbia heterophylla (Euphorbia heterophylla; 100 g of a.s./ha): 37%
Herbicidal action (%) against Euphorbia heterophylla (Euphorbia heterophylla; 200 g of a.s./ha): 50%
Herbicidal action (%) against EPHHL (Euphorbia heterophylla; 300 g of a.s./ha): 45%
Herbicidal action (%) against Euphorbia heterophylla (Euphorbia heterophylla; 400 g of a.s./ha): 60%
Herbicidal action (%) against EPHHL (Euphorbia heterophylla; 600 g of a.s./ha): 55%
Herbicidal action (%) against Fagopyrum esculentum (Fagopyrum esculentum; 125 g of a.s./ha): 10%
Herbicidal action (%) against Fagopyron esculentum (Fagopyrum esculentum; 200 g of a.s./ha): 10%
Herbicidal action (%) against Fagopyrum esculentum (Fagopyrum esculentum; 250 g of a.s./ha): 20%
Herbicidal action (%) against Fagopyron esculentum (Fagopyrum esculentum; 330 g of a.s./ha): 20%
Herbicidal action (%) against Fagopyron esculentum (Fagopyrum esculentum; 500 g of a.s./ha): 55%
Herbicidal action (%) against Fagopyrum esculentum (Fagopyrum esculentum; 500 g of a.s./ha): 55%
Herbicidal action (%) against Galium aparine (Galium aparine; 125 g of a.s./ha): 30%
Herbicidal action (%) against Galium aparine (Galium aparine; 250 g of a.s./ha): 45%
Herbicidal action (%) against Galium aparine (Galium aparine; 500 g of a.s./ha): 65%
Herbicidal action (%) against Portulaca oleracea (Portulaca oleracea; 250 g of a.s./ha, application 6-leaf stage, scoring 26 days after application): 35%
Herbicidal action (%) against Portulaca oleracea (Portulaca oleracea; 300 g of a.s./ha, application 2- to 4-leaf stage, scoring 28 days after application): 43%
Herbicidal action (%) against Portulaca oleracea (Portulaca oleracea; 450 g of a.s./ha, application 2- to 4-leaf stage, scoring 28 days after application): 50%
Herbicidal action (%) against Portulaca oleracea (Portulaca oleracea; 500 g of a.s./ha, application 6-leaf stage, scoring 26 days after application): 60%
Herbicidal action (%) against SETVI (SETVI; 200 g of a.s./ha): 72%
Herbicidal action (%) against SETVI (SETVI; 300 g of a.s./ha): 72%
Herbicidal action (%) against SETVI (SETVI; 400 g of a.s./ha): 69%
Herbicidal action (%) against SETVI (SETVI; 600 g of a.s./ha): 69%
Herbicidal action (%) against SETVI (SETVI; 1000 g of a.s./ha): 74%
Herbicidal action (%) against Avena fatua (Avena fatua; 300 g of a.s./ha): 48%
Herbicidal action (%) against Avena fatua (Avena fatua; 450 g of a.s./ha): 50%
Herbicidal action (%) against Brachiaria plantaginea (Brachiaria plantaginea; 150 g of a.s./ha): 5%
Herbicidal action (%) against Brachiaria plantaginea (Brachiaria plantaginea; 300 g of a.s./ha): 45%
Herbicidal action (%) against Brachiaria plantaginea (Brachiaria plantaginea; 600 g of a.s./ha): 70%
Herbicidal action (%) against Commelina benghalensis (Commelina benghalensis; 100 g of a.s./ha): 43%
Herbicidal action (%) against Commelina benghalensis (Commelina benghalensis; 200 g of a.s./ha): 60.0%
Herbicidal action (%) against Commelina benghalensis (Commelina benghalensis; 300 g of a.s./ha): 63%
Herbicidal action (%) against Commelina benghalensis (Commelina benghalensis; 600 g of a.s./ha): 82%
Herbicidal action (%) against Convolvulus arvensis (Convolvulus arvensis; 200 g of a.s./ha): 0%
Herbicidal action (%) against Convolvulus arvensis (Convolvulus arvensis; 400 g of a.s./ha): 20%
Herbicidal action (%) against Sinapis arvensis (Sinapis arvensis; 230 g of a.s./ha): 45%
Herbicidal action (%) against Sinapis arvensis (Sinapis arvensis; 350 g of a.s./ha): 75%
Herbicidal action (%) against Sorghum bicolor (Sorghum bicolor; 125 g of a.s./ha): 30%
Herbicidal action (%) against Sorghum bicolor (Sorghum bicolor; 250 g of a.s./ha): 50%
Herbicidal action (%) against Sorghum bicolor (Sorghum bicolor; 500 g of a.s./ha): 85%
Herbicidal action (%) against Sorghum halepense (Sorghum halepense; 300 g of a.s./ha): 15%
Herbicidal action (%) against Sorghum halepense (Sorghum halepense; 500 g of a.s./ha): 53%
